{"source": "patent US10736912B2", "about": "“Compositions containing PUFA and/or uridine and methods of use thereof” (MASSACHUSETTS INSTITUE OF TECHNOLOGY, priority 2005, dated 2020)", "key": {"[1]": {"tested_on": "brain phospholipid levels", "assay": "Brain phospholipid levels in gerbils given UMP diet and/or PUFA by gavage", "assay_type": "in vivo, gerbil", "conditions": "for Brain phospholipid levels: Table 6", "description": "(§1) Cells were homogenized in 100 volumes of ice-cold deionized water using a tissue degrader (Polytron PT 10-35, Kinematica AG, Switzerland); 1 ml of aliquots were then mixed with 3 ml of chloroform+methanol mixture (2:1 v/v) and vortexed vigorously for 30 seconds. After cooling for 1 h on ice, the mixture was mixed sequentially with 3 ml of chloroform+methanol mixture (2:1 v/v) and 1 ml of ice-cold deionized water. The mixture was vortexed vigorously and allowed to stand overnight in the cold room (18 h). The organic (lower) and aqueous (upper) phases of the mixtures were separated by centrifugation (10 min at 4° C.; 1000 g). An aliquot (2 ml) of the upper phase was used for determination of CDP-Choline (see below), and 0.1-0.4 ml aliquots of the lower phase were dried under vacuum for phospholipid analysis. Residues of 0.1 ml aliquots of the lower phase were assayed for total phospholipid content by measuring phosphorus. Residues of 0.4 ml aliquots of the lower phase were reconstituted in 40 μl methanol and subjected to thin-layer chromatography using silica G plates (Adsorbosil Plus-1®, Alltech), and a system consisting of chloroform/ethanol/triethylamine/water (30:34:30:8) as the mobile phase. Phospholipid standards were used to identify the corresponding bands under UV light after the plates were sprayed with 0.1% diphenylhexatriene in petroleum ether. Bands for individual phospholipid classes (PC, PE, SM, PS and PI) were scraped off the plates and extracted into 1 ml of methanol; dried under vacuum; and assayed for phosphorus content. Total phosphorus was determined by comparison with standard curves by using KH2PO4 run with each assay. To each sample was added 0.5 ml of 4.5% HclO4/27% H2SO4 and tubes were heated at 180° C. for 3 h. After cooling to room temperature, 5 ml of the color reagent (a 10:1 dilution of solutions containing 2.5 mg/ml ammonium molybdate, 8.2 mg/ml sodium acetate and 100 mg/ml ascorbic acid respectively) was added and the tubes were incubated for 2 h, 37° C. Absorbance was measured spectrophotometrically at 820 nm. Phospholipid mass was determined by multiplying the phosphorus content by 25.\nControl standard diet (Table 4) consisted of Teklad Global 16% protein rodent diet (Harlan Teklad, Madison, Wis.), which contained 0.1% choline chloride (CC), corresponding to a daily dose of 50 mg/kg/day. UMP was provided as 0.5% UMP·2Na^+ weight/weight, added to the control diet, also prepared by Harlan Teklad, corresponding to 240 mg/kg/day UMP. DHA was administered as 300 mg/kg/day in 200 microliter (mcL)/day 5% Arabic Gum solution, while groups not receiving DHA were administered vehicle (5% Arabic Gum) alone. DHA was provided by Nu-Chek Prep (Elysian, Minn.) and UMP by Numico (Wagenigen, NL).\nGerbils were anesthetized with ketamine and xylazine (80 and 10 mg/kg bwt, i.p.) and sacrificed by immersing the head into liquid nitrogen for 2 min, followed by decapitation. Brains were immediately and quickly (30 seconds) removed using a bone rongeur and stored at −80° C.\nFrozen brain hemispheres were weighed and homogenized in 100 volumes of ice-cold deionized water using a tissue degrader (Polytron PT 10-35, Kinematica AG, Switzerland), then analyzed as described in Example 1.\nProtein in whole brain homogenate sample was measured for using bicinchoninic acid reagent (Perkin Elmer, Norwalk, Conn., USA). DNA was measured by measuring 460 nm emission of samples on a fluorometer in the presence of bisbenzimidizole, a fluorescent dye known as Hoechst H 33258 (American Hoechst Corporation), which has an excitation maximum at 356 nm and an emission maximum of 458 when bound to DNA.\nMale gerbils weighing 80-100 g were divided into 4 groups of 8 gerbils and administered the supplements depicted in Table 1: […]"}, "[2]": {"tested_on": "SHSY-5Y cells", "assay": "14C-choline incorporation into phospholipids in SHSY-5Y cells", "assay_type": "cell-based, human", "conditions": "for Phospholipid synthesis enhanced: 10 μM fatty acid, 18 hr, FIG. 3A", "description": "SHSY-5Y cells were grown to near confluency in DMEM+10% FBS in 35 mm dishes. Cells were incubated for 18 hr in serum-free DMEM+1% FBS containing 30 μM choline+/−10 μM of DHA, arachidonic acid, or palmitic acid. Cells were then labeled, and labeled phospholipids were quantified as described for Example 1.\nDHA was dissolved in ethanol to a […] concentration and frozen in 10 microliter aliquots at −80° C. For each experiment, one aliquot was diluted in ethanol to 10 micromolar; the volume giving the desired final solution in incubation medium was mixed with an equal volume of BSA solution (1 gm/ml).\nThe effect of omega-6 fatty acids on phospholipid synthesis was next examined in SHSY-5Y cells, a human neuroblastoma cell line. In this case, phospholipid synthesis was enhanced by arachidonic acid, an omega-6 fatty acid, but not by DHA or palmitic acid (FIG. 3A).\nThe effect of arachidonic acid on phospholipid synthesis in SHSY-5Y cells was further characterized as described for omega-3 fatty acids and PC-12 cells in Example 2."}, "[3]": {"tested_on": "brain CDP-choline levels", "assay": "Brain CDP-choline and CDP-ethanolamine levels in gerbils", "assay_type": "in vivo, gerbil", "conditions": "28 days", "source_text": "FIGS. 5A and 5B. FIG. 5A illustrates the effect Effects of DHA on brain CDP-choline levels (FIG. 5A) and while FIG. 5B illustrates the effect of DHA on brain CDP-ethanolamine levels (FIG. 5B). Groups of 8 gerbils received either a control or a UMP-containing diet, and, by gavage, DHA (in a vehicle of 5% gum Arabic solution) or 5% gum Arabic solution alone for 28 days. On the 29th day brains were harvested and assayed for CDP-choline. Data are presented as means±SEM. Statistical analysis was performed using one- or two-way ANOVA followed by Tukey test. a: P<0.05 when compared with the values for control diet plus vehicle group; b: P<0.05 when compared with values for UMP diet plus vehicle group.\nAliquots (2 ml) of the upper (aqueous) phase were dried under a vacuum, reconstituted, and injected into an HPLC. The dried samples were reconstituted in 100-200 μl water and were analyzed by HPLC on an anion exchange column (Alltech Hypersil APS-2, […], 250×4.6 mm). CDP-choline was eluted with a linear gradient of buffers A (H3PO4, 1.75 mM, pH 2.9) and B (NaH2PO2, 500 mM, pH 4.5) from 0 to 100% B over period of 30 min. With this system, CDP-choline was resolved from closely co-eluting substances such as UMP in an isocratic system over a period of 40 min. The retention time for CDP-choline was 9.5 min. The column was washed with buffer B at the end of each experiment and every several days to remove retained nucleotides. Individual nucleotide peaks were detected by UV absorption at 280 nm and were identified by comparison with the positions of authentic standards, as well as by the addition of nucleotide standards to samples.\nTo determine the effect of PUFA administration on CDP-choline levels, brain CDP-choline levels were measured in the animals from the previous Example. Administration of DHA and/or UMP decreased CDP-choline levels (FIG. 5A) and CDP-ethanolamine levels (FIG. 5B). DHA reduced CDP-choline levels by 26% (compared with those receiving just the control diet and DHA's vehicle), and in UMP-treated gerbils by 21% (compared with those receiving UMP-containing diet and DHA's vehicle) (both P<0.05)."}, "[4]": {"tested_on": "brain phospholipid levels", "assay": "Brain phospholipid levels in rat pups of treated pregnant and nursing mothers", "assay_type": "in vivo", "conditions": "rat pups, postnatal day 20, mean", "description": "In another study, pregnant rats were allowed to consume ad libitum, for 10 days before parturition and 20 days while nursing, either a choline-containing control diet or this diet supplemented with uridine as UMP; half of each group also received DHA or its diluent daily, by gavage. Pups were then sacrificed and brain slices were examined to determine numbers of hippocampal dendritic spines.\nPregnant and nursing rats were administered DHA and/or uridine as described in Example 9. At 20 days post-birth, rats were sacrificed and brain samples were obtained and assayed for phospholipids. Administration of DHA alone increased brain PC, PI, PE, and sphingomyelin (SM) per cell (DNA) by 36, 166, 38, and 78%, respectively. UMP markedly amplified the effects of DHA to 66, 210, 68, and 99% of control, respectively (Table 8). These increases were greater than those observed in adult animals. Similar results were obtained when normalizing to protein (Table 9). Thus, administration of DHA and/or uridine to pregnant and nursing mothers is able to increase phospholipid levels in the offspring."}, "[5]": {"tested_on": "PC-12 cells", "assay": "14C-choline incorporation into phospholipids in PC-12 cells", "assay_type": "cell-based", "conditions": "5 μM fatty acid, 18 hr pre-incubation, then 14C-choline 2.5 hr; FIG. 1", "description": "PC-12 cells were maintained in Dulbecco's modified Eagle's medium (DMEM)+10% fetal bovine serum (FBS). For experiments, cells were grown in quintuplicate collagen-coated 35 millimeter (mm) dishes. Cells were incubated for 18 hours (hr) in serum-free DMEM containing 28 μM choline+/−5 micromolar (μM) of DHA, oleic acid, or palmitic acid. Cells were then labeled for 2.5 hr with 0.5 microcurie (μCi)/ml ^14C-choline in serum-free DMEM containing 10-micromolar (μM) choline.\nas §1, with “To each sample was added 0.5 ml of 4.5% HclO4/27% H2SO4 and tubes were heated at 180° C. for 3 h. After cooling to room temperature, 5 ml of the color reagent (a 10:1 dilution of solutions containing 2.5 mg/ml ammonium molybdate, 8.2 mg/ml sodium acetate and 100 mg/ml ascorbic acid respectively) was added and the tubes were incubated for 2 h, 37° C.” left out\nIn order to assess the effect of omega-3 fatty acids on phospholipid synthesis, PC-12 cells were incubated with ^14C-labeled choline, following an 18-hour pre-incubation with or without DHA. Incorporation of label into phospholipids was then measured. […]\nTo further characterize the stimulation of phospholipid synthesis by omega-3 fatty acids, PC-12 cells were pre-treated with different doses of DHA and exposed to labeled choline as described in Example 1, then incorporation of ^14C-label into phospholipids was measured. […]"}, "[6]": {"conditions": "Table 9, nmol per microgram DNA"}}, "data": [{"compound": "CCCCCC=CCC=CCC=CCC=CCCCC(=O)O", "note": "[AA, 5,8,11,14-eicosatetraenoic acid]", "values": [{"measurement": "Brain phospholipid levels", "setting": "[1]; 3 weeks", "value": "increased"}, {"measurement": "Phospholipid synthesis enhanced", "setting": "[2]", "value": "enhanced"}, {"measurement": "Synthesis of total phospholipids, PC, and phosphatidylethanolamine", "setting": "[2]; range of dosages, FIG. 3B", "value": "increased"}]}, {"compound": "CCC=CCC=CCC=CCC=CCC=CCCCC(=O)O", "note": "[EPA, 5,8,11,14,17-eicosapentaenoic acid]", "values": [{"measurement": "Brain phospholipid levels", "setting": "[1]; 3 weeks", "value": "increased"}]}, {"compound": "O=c1ccn([C@@H]2O[C@H](COP(=O)(O)O)[C@@H](O)[C@H]2O)c(=O)[nH]1", "note": "[UMP, uridine monophosphate]", "values": [{"measurement": "CDP-choline levels (FIG. 5A)", "setting": "[3]", "value": "decreased"}, {"measurement": "CDP-ethanolamine levels (FIG. 5B)", "setting": "[3]", "value": "decreased"}, {"measurement": "PC", "setting": "[4]; Table 8, nmol per mg protein", "value": 95.3, "unit": "nmol/mg protein"}, {"measurement": "PE", "setting": "[4]; Table 8, nmol per mg protein", "value": 75.6, "unit": "nmol/mg protein"}, {"measurement": "PI", "setting": "[4]; Table 8, nmol per mg protein", "value": 3.92, "unit": "nmol/mg protein"}, {"measurement": "SM", "setting": "[4]; Table 8, nmol per mg protein", "value": 5.27, "unit": "nmol/mg protein"}, {"measurement": "Total Phospholipids", "setting": "[4]; Table 8, nmol per mg protein", "value": 282.2, "unit": "nmol/mg protein"}, {"measurement": "PC", "setting": "[4]; [6]", "value": 8.11, "unit": "nmol/microgram DNA"}, {"measurement": "PE", "setting": "[4]; [6]", "value": 6.56, "unit": "nmol/microgram DNA"}, {"measurement": "PI", "setting": "[4]; [6]", "value": 0.352, "unit": "nmol/microgram DNA"}, {"measurement": "SM", "setting": "[4]; [6]", "value": 0.458, "unit": "nmol/microgram DNA"}, {"measurement": "Total Phospholipids", "setting": "[4]; [6]", "value": 24.78, "unit": "nmol/microgram DNA"}, {"measurement": "Effects on brain phospholipids after 1 week of treatment", "setting": "[1]; 1 week", "value": "no significant effects"}, {"measurement": "Increases in brain phospholipids", "setting": "[1]; 3 weeks", "value": "smaller but still significant increases"}, {"measurement": "Increase in levels of total phospholipids over control group", "setting": "[1]; 4 weeks, gerbil brain", "value": 5, "unit": "%"}, {"measurement": "Total PtdCho", "setting": "[1]; Table 5 part A", "value": "171 ± 8", "unit": "nmol/mg prt"}, {"measurement": "Total PtdEtn", "setting": "[1]; Table 5 part A", "value": "84 ± 8", "unit": "nmol/mg prt"}, {"measurement": "Total PtdSer", "setting": "[1]; Table 5 part A", "value": "35 ± 3", "unit": "nmol/mg prt"}, {"measurement": "Total Ptdins", "setting": "[1]; Table 5 part A", "value": "31 ± 2", "unit": "nmol/mg prt"}, {"measurement": "Total PtdEtn", "setting": "[1]; Table 5 part B, One Week", "value": "63 ± 4", "unit": "nmol/mg prt"}, {"measurement": "Total PtdSer", "setting": "[1]; Table 5 part B, One Week", "value": "39 ± 1", "unit": "nmol/mg prt"}, {"measurement": "Total Ptdins", "setting": "[1]; Table 5 part B, One Week", "value": "20 ± 4", "unit": "nmol/mg prt"}, {"measurement": "Total PtdEtn", "setting": "[1]; Table 5 part B, Three Weeks", "value": "87 ± 4", "unit": "nmol/mg prt"}, {"measurement": "Total PtdSer", "setting": "[1]; Table 5 part B, Three Weeks", "value": "42 ± 2", "unit": "nmol/mg prt"}, {"measurement": "Total Ptdins", "setting": "[1]; Table 5 part B, Three Weeks", "value": "25 ± 1", "unit": "nmol/mg prt"}]}, {"compound": "CCCCCCCC/C=C\\CCCCCCCC(=O)O", "note": "[oleic acid, reference compound]", "values": [{"measurement": "Phosphatidylcholine (PC) synthesis significantly increased (incorporation of 14C label into PC)", "setting": "[5]", "value": "not"}]}, {"compound": "CCCCCCCCCCCCCCCC(=O)O", "note": "[palmitic acid, reference compound]", "values": [{"measurement": "Phosphatidylcholine (PC) synthesis significantly increased (incorporation of 14C label into PC)", "setting": "[5]", "value": "not"}, {"measurement": "Phospholipid synthesis enhanced", "setting": "[2]", "value": "not"}]}]}
